One data set relates to F1 generation testis. The conditions noted are these: cited from earlier work.
Data set [1] has as its system DNA isolated from P6 testis or epididymal sperm. Kind of data set: Methylation sensitive restriction enzyme PCR (MSRE-PCR) DNA methylation analysis. In kind it is in vivo, rat. The protocol: DNA Methylation Assays: The methylation status of DNA, isolated from control and endocrine disruptor treated P6 testis, or epididymal sperm, used a combination of methylation sensitive restriction enzymes, and a PCR approach, previously described. Briefly, isolated genomic DNA was incubated and digested with RsaI, with either methylation sensitive (HpaII), or insensitive (MspI) restriction enzymes, followed by PCR, with 10 primer sets designed to amplify methylation sites. PCR products were electrophoretically separated, and visualized by Sybr green staining (Molecular Probes, Eugene, Oreg.), and effects of endocrine disruptors, were determined by the presence or absence of specific bands. The PCR products of interest were isolated, cloned and sequenced to determine chromosomal location by BLAST Genbank analysis. P6 testis analysis was repeated using 4 animals from different litters.
DNA methylation assay: The methylation state of the DNA isolated from CDF control and vinclozolin generation epididymal sperm was determined using a combination of methylation sensitive restriction enzymes and PCR procedures (MSRE-PCR) described above in Example I. Briefly, genomic DNA was isolated from sperm samples using the DNeasy Tissue Kit (Quiagen, Valencia, Calif.). Two micrograms each of control and vinclozolin generation sperm DNA were separately digested with RsaI and either methylation-sensitive enzyme HpaII or insensitive MspI enzymes, followed by PCR with specific primer sets (Table 1). PCR products were electrophoretically separated on polyacrylamide gels and visualized by ethidium bromide staining. The PCR products (i.e. bands) that were reproducibly absent or present between control and vinclozolin generation sperm DNA were excised from stained gels, re-amplified with the same PCR primer set, and then cloned and sequenced. The DNA sequence and chromosomal location were determined using the NCBI Rat genomic databank BLAST system.
Genomic DNA and Methylation Sensitive Restriction Enzyme PCR: Genomic DNA was isolated from the different control and vinclozolin F1-F3 generation epididymal sperm samples. A total of 1 μg of genomic DNA was digested using methylation-sensitive HpaII or AciI enzymes (37° C., 6-12 hr). The digested DNA was precipitated and dissolved in 30 μl of dH2O. Then, 3 μl aliquots were analyzed by PCR in 30 μl reactions with specific primers (Table 1), subjected to 25 cycles, and the PCR products electrophoretically separated on 1.5% agarose. The differences between the control and vinclozolin F1-F3 generation sperm samples were determined for selected genes found to have high optimal digestion capacity.

As to `C=CC1(C)OC(=O)N(c2cc(Cl)cc(Cl)c2)C1=O` (centres unmarked) [vinclozolin], the “adult F1 generation testis phenotype” value with F1 generation testis (gestating mother exposed E8-E15, 100 or 200 mg/kg i.p. daily) was “reduced spermatogenic capacity, increased spermatogenic cell apoptosis and decreased sperm number and motility”. The “effect on the F1 generation testis” value in the data set on F1 generation testis (rat, in vivo) is given as “no effect”. In addition, in data set [1] (F1, F2 and F3 generation sperm DNA), the “gene specific MSRE-PCR products for candidates #1, #14, #17/18, #27/28 and #33” value is given as “PCR products were observed in all the vinclozolin generation sperm DNA samples, but not in the controls”. Also, the “individual candidate DNA sequences with potential altered methylation sites” value in data set [1] (F3 generation sperm DNA) came to 25. In addition, the “candidates with potential altered DNA methylation between control and vinclozolin sperm samples” value in data set [1] (F3 generation sperm, Fisher rats) worked out at 34. Moreover, the “different PCR products with apparent altered DNA methylation patterns” value in data set [1] (P6 testis, F1 males, Fisher rats, n=4) is recorded as “Approximately 25”. Besides, the “animals with altered clone 17 (cytokine-inducible SH2 STAT-like protein gene) methylation in epididymal sperm” value in data set [1] (out of 5 F3 animals) is listed as 2 animals; in data set [1] (out of 8 F2 animals), 4 animals.
